# Results from patent US20170007561A1, “CONTEMPORANEOUS, HETEROGENEOUSLY-ORIENTED, MULTI-TARGETED THERAPEUTIC MODIFICATION AND/OR MODULATION OF DISEASE BY ADMINISTRATION OF SULFUR-CONTAINING, AMINO ACID-SPECIFIC SMALL MOLECULES” (BioNumerik Pharmaceuticals, Inc., priority 2014, published 2017).
# Where “and” joins values, the source holds several entries; their conditions need not be identical. Equal entries are not always repeated. Where two headings read alike, the source gives them in different places.
# Columns and labels:
# [1] = test system: human breast, ovarian and lymphoma cancer cell lines; test: Paclitaxel induced apoptosis (PARP cleavage, Bcl-2 phosphorylation, DNA laddering); type: cell-based
# Text: Tavocept mediates the non-enzymatic xenobiotic modification of sulfur-containing amino acid residues (e.g., cysteine) on proteins. As an engineered, non-naturally occurring agent (i.e., xenobiotic), Tavocept is autocatalytic and requires no protein cofactor to cause the xenobiotic modification of cysteine, but appears to be specific for cysteine residues located within a particular structural context (i.e., not all cysteines in a protein are so modified). Tavocept-mediated, xenobiotic modification represents a novel mechanism of action for a cancer treating agent and can be compared to a degree with post-translational modifications of cysteine residues in proteins (see, Table 3, below).
# [2] = molecular target: T1, bovine TrxR (Bos taurus, UniProt O62768); test: TrxR NADPH oxidation assay without Trx (Reaction A); type: biochemical
# T1 construct: purchased American Diagnostica
# T1 sequence (O62768 1-499): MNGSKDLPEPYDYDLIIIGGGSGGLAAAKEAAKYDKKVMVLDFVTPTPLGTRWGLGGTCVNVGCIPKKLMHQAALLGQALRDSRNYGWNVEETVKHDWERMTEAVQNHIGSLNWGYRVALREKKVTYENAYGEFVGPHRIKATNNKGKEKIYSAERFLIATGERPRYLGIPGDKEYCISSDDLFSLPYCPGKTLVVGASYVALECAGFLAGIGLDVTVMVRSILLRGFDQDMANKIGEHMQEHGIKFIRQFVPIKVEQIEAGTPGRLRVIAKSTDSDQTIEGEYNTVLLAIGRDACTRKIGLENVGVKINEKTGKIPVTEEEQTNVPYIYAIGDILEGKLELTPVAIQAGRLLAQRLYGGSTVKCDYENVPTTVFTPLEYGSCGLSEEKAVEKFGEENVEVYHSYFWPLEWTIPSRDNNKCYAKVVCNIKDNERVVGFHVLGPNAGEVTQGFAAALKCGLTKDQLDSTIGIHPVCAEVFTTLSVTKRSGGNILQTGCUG
# [3] = molecular target: T2, Peroxiredoxin (Prx) (Homo sapiens, UniProt Q06830); test: Peroxiredoxin activity (summary Table 27); type: biochemical
# T2 construct: purchased SigmaAldrich
# [4] = cited from earlier work
# T2 sequence (Q06830 whole entry): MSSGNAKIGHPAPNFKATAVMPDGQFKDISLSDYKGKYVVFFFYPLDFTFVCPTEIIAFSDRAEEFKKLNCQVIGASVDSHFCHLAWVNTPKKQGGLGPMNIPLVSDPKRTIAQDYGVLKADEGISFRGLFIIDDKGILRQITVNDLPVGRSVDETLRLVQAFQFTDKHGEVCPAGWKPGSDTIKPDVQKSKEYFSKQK
smiles,measurement,setting,value
"O=S(=O)([O-])CCSSCCS(=O)(=O)[O-].[Na+].[Na+] [Tavocept, disodium 2,2′-dithio-bis-ethane sulfonate]",interference with paclitaxel induced apoptosis,[1],does not interfere
same,Reduction by TrxR alone,[2]; Reaction A,did not detectably reduce
same,"NADPH Oxidation, Reaction A","[2]; TrxR alone + NADPH, no Trx, disulfide 0.5 mM",0.3 ± 0.01 nmol/min/mL
same,Cellular consequence of BNP7787-modification and/or modulation: Prx,[3],BNP7787 disrupts active site structure (Prx) resulting in impaired
same,Tavocept in plasma,[4]; 41 g/m^2 Tavocept,~14 mM
same,concentrations of Tavocept achieved in the clinic,[4]; as high as,≤ 18000 µM
same,pharmacologically achievable plasma levels,[4]; doses of 18.4 g/m^2 and higher,≥ 8 mM
same,Plasma concentrations achieved in clinical trials,[4]; in vivo,10000 µM
same,pharmacologically achievable concentrations,[4]; in vivo,6-10 mM
same,Cmax,"[4]; read-out: Cmax values in plasma, dose of 18.4 g/m^2",≥ 10000 µM and ~10000 µM
same,Cmax,"[4]; read-out: Cmax values in plasma, doses as high as 41 g/m^2, typical",~10000 µM
same,Cmax,"[4]; read-out: typical Cmax values, administered at 18 g/m^2",~10000 µM
